# Like-named read-outs stand apart in the source and are kept apart here.
# How the values were obtained:
# MEK1 = biological target: T1, MEK1 (Homo sapiens, UniProt Q02750); experiment: MEK1-inhibiting activity, fluorescent polarization method (CRAF/MEK1/ERK2 cascade, IMAP); type: biochemical
# T1 construct: purchased Thermo Fisher Scientific Inc. (MEK1, CRAF); Carna Biosciences, Inc. (ERK2)
# Experimental: The MEK1-inhibiting activity of the compounds listed in Table 3 below were evaluated by the fluorescent polarization method as described below.
# BRAF = biological target: T2, BRAF (Homo sapiens, UniProt P15056); experiment: BRAF-inhibiting activity, time-resolved fluorescence-fluorescence resonance energy transfer assay; type: biochemical
# T2 construct: purchased Eurofins Genomics KK; (BRAF); Thermo Fisher Scientific Inc. (MEK1)
# T2 sequence (P15056 417-766 limits assumed): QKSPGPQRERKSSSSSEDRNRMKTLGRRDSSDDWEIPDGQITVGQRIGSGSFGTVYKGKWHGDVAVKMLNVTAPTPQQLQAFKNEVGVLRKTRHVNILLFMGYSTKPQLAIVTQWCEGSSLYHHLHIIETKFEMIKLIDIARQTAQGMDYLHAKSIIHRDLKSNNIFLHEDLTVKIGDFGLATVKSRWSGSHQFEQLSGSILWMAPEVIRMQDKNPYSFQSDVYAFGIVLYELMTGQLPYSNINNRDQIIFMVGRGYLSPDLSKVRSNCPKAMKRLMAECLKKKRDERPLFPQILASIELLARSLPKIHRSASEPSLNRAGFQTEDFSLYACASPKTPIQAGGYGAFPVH
# Experimental: The BRAF-inhibiting activity of the compounds listed in Table 3 below was evaluated by the time-resolved fluorescence-fluorescence resonance energy transfer assay as described below.
# A549 = experiment: Cell proliferation-inhibiting activity (ATP in viable cells, CellTiter-Glo), A549; type: cell-based, human; conditions: A549, 96 h, read-out: A549 IC50
# NCI-H2122 = experiment: Cell proliferation-inhibiting activity (ATP in viable cells, CellTiter-Glo), NCI-H2122; type: cell-based, human; conditions: NCI-H2122, 96 h, read-out: NCI-H2122 IC50
# [1] = Human liver microsome stability; type: in vitro ADME; conditions: human liver microsomes, pH 7.4
# [2] = human lung cancer cells, 4 days
# T1 sequence (Q02750 whole entry): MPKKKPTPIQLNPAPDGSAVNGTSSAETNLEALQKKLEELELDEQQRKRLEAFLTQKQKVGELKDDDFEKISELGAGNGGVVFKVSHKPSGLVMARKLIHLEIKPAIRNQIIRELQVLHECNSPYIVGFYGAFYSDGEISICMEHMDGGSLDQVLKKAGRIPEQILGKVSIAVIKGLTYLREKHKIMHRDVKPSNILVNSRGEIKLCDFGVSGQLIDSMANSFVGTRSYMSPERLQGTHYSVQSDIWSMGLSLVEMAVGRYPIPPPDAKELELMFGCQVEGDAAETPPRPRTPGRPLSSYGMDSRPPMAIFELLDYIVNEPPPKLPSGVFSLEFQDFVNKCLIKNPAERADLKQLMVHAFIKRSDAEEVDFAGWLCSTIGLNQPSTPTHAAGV
smiles,measurement,setting,value
"CC(O)CNS(=O)(=O)Nc1nccc(Cc2cc(C(N)=O)c(Nc3ccc(I)cc3F)c(F)c2F)c1F (racemic) [Compound A-17, (+/-)-3,4-difluoro-5-[[3-fluoro-2-(2-hydroxypropylsulfamoylamino)pyridin-4-yl]methyl]-2-(2-fluoro-4-iodoanilino)benzamide]",IC50,MEK1,6 nM
same,IC50,BRAF; Table 3; read-out: BRAF IC50,4 nM
same,IC50,A549; [2],53 nM
same,IC50,NCI-H2122; [2],15 nM
same,microsomal CLint at 0.99 µM,[1],6 µL/min/mg
"CNS(=O)(=O)Nc1nccc(Cc2cc(C(=O)NOC(C)C)c(Nc3ccc(I)cc3F)c(F)c2F)c1F [Compound A-10, 3,4-Difluoro-2-(2-fluoro-4-iodoanilino)-5-[[3-fluoro-2-(methylsulfamoylamino)pyridin-4-yl]methyl]-N-propan-2-yloxybenzamide]",IC50,"MEK1; Table 3, read-out: MEK1 IC50",5 nM
same,IC50,BRAF; read-out: BRAF IC50; Table 3,7 nM
same,IC50,A549; [2],0.1 nM
same,IC50,NCI-H2122; [2],0.2 nM
same,microsomal CLint at 0.99 µM,[1],89 µL/min/mg
"COCCNS(=O)(=O)Nc1nccc(Cc2cc(C(=O)NOC(C)C)c(Nc3ccc(I)cc3F)c(F)c2F)c1F [Compound A-11, 3,4-Difluoro-2-(2-fluoro-4-iodoanilino)-5-[[3-fluoro-2-(2-methoxyethylsulfamoylamino)pyridin-4-yl]methyl]-N-propan-2-yloxybenzamide]",IC50,"MEK1; Table 3, read-out: MEK1 IC50",7 nM
same,IC50,BRAF; read-out: BRAF IC50; Table 3,9 nM
same,IC50,A549; [2],1 nM
same,IC50,NCI-H2122; [2],1 nM
same,microsomal CLint at 0.99 µM,[1],128 µL/min/mg
"C=Cc1ccc(Nc2c(C(N)=O)cc(Cc3ccnc(NS(=O)(=O)NC)c3F)c(F)c2F)c(F)c1 [Compound A-19, 2-(4-Ethenyl-2-fluoroanilino)-3,4-difluoro-5-[[3-fluoro-2-(methylsulfamoylamino)pyridin-4-yl]methyl]benzamide]",IC50,"MEK1; Table 3, read-out: MEK1 IC50",30 nM
same,IC50,BRAF; Table 3; read-out: BRAF IC50,3 nM
same,IC50,A549; Homo sapiens,6 nM
same,IC50,NCI-H2122; Homo sapiens,5 nM
same,microsomal CLint at 0.99 µM,[1],35 µL/min/mg
"C#Cc1ccc(Nc2c(C(N)=O)cc(Cc3ccnc(NS(=O)(=O)NCCC)c3F)c(F)c2F)c(F)c1 [Compound A-20, 2-(4-ethynyl-2-fluoroanilino)-3,4-difluoro-5-[[3-fluoro-2-(propylsulfamoylamino)pyridin-4-yl]methyl]benzamide]",IC50,"MEK1; Table 3, read-out: MEK1 IC50",23 nM
same,IC50,BRAF; Table 3; read-out: BRAF IC50,2 nM
same,IC50,A549; Homo sapiens,7 nM
same,IC50,NCI-H2122; Homo sapiens,6 nM
same,microsomal CLint at 0.99 µM,[1],14 µL/min/mg
"NC(=O)c1cc(Cc2ccnc(NS(=O)(=O)NCC3COC3)c2F)c(F)c(F)c1Nc1ccc(I)cc1F [Compound A-21, 3,4-difluoro-2-(2-fluoro-4-iodoanilino)-5-[[3-fluoro-2-(oxetan-3-ylmethylsulfamoylamino)pyridin-4-yl]methyl]benzamide]",IC50,"MEK1; Table 3, read-out: MEK1 IC50",5 nM
same,IC50,BRAF; read-out: BRAF IC50; Table 3,4 nM
same,IC50,A549; [2],31 nM
same,IC50,NCI-H2122; [2],14 nM
same,microsomal CLint at 0.99 µM,[1],4 µL/min/mg
"CC1(NS(=O)(=O)Nc2nccc(Cc3cc(C(N)=O)c(Nc4ccc(I)cc4F)c(F)c3F)c2F)CC1 [Compound A-23, 3,4-Difluoro-2-(2-fluoro-4-iodoanilino)-5-[[3-fluoro-2-[(1-methylcyclopropyl)sulfamoylamino]pyridin-4-yl]methyl]benzamide]",IC50,"MEK1; Table 3, read-out: MEK1 IC50",35 nM
same,IC50,BRAF; read-out: BRAF IC50; Table 3,5 nM
same,IC50,A549; [2],5 nM
same,IC50,NCI-H2122; [2],1 nM
same,microsomal CLint at 0.99 µM,[1],< 1 µL/min/mg
"C#Cc1ccc(Nc2c(C(N)=O)cc(Cc3ccnc(NS(=O)(=O)NC)c3F)c(F)c2F)c(F)c1 [Compound A-26, 2-(4-Ethynyl-2-fluoroanilino)-3,4-difluoro-5-[[3-fluoro-2-(methylsulfamoylamino)pyridin-4-yl]methyl]benzamide]",IC50,"MEK1; Table 3, read-out: MEK1 IC50",5 nM
same,IC50,BRAF; Table 3; read-out: BRAF IC50,9 nM
same,IC50,A549; Homo sapiens,7 nM
same,IC50,NCI-H2122; Homo sapiens,2 nM
same,microsomal CLint at 0.99 µM,[1],13 µL/min/mg
"CNS(=O)(=O)Nc1nccc(Cc2cc(C(N)=O)c(Nc3ccc(Br)cc3F)c(F)c2F)c1F [Compound A-27, 2-(4-bromo-2-fluoroanilino)-3,4-difluoro-5-[[3-fluoro-2-(methylsulfamoylamino)pyridin-4-yl]methyl]benzamide]",IC50,"MEK1; Table 3, read-out: MEK1 IC50",32 nM
same,IC50,BRAF; read-out: BRAF IC50; Table 3,7 nM
same,IC50,A549; [2],24 nM
same,IC50,NCI-H2122; [2],10 nM
same,microsomal CLint at 0.99 µM,[1],4 µL/min/mg
"NC(=O)c1cc(Cc2ccnc(NS(=O)(=O)NC34CC(C3)C4)c2F)c(F)c(F)c1Nc1ccc(I)cc1F [Compound A-28, 5-[[2-(1-Bicyclo[1.1.1]pentanylsulfamoylamino)-3-fluoropyridin-4-yl]methyl]-3,4-difluoro-2-(2-fluoro-4-iodoanilino)benzamide]",IC50,"MEK1; Table 3, read-out: MEK1 IC50",13 nM
same,IC50,BRAF; read-out: BRAF IC50; Table 3,9 nM
same,IC50,A549; [2],5 nM
same,IC50,NCI-H2122; [2],2 nM
same,microsomal CLint at 0.99 µM,[1],11 µL/min/mg
NC(=O)c1cc(Cc2ccnc(NS(=O)(=O)NC3CCOCC3)c2F)c(F)c(F)c1Nc1ccc(I)cc1F [Compound A-29],IC50,"MEK1; Table 3, read-out: MEK1 IC50",14 nM
same,IC50,BRAF; Table 3; read-out: BRAF IC50,11 nM
same,IC50,A549; [2],28 nM
same,IC50,NCI-H2122; [2],6 nM
same,microsomal CLint at 0.99 µM,[1],18 µL/min/mg
"NC(=O)c1cc(Cc2ccnc(NS(=O)(=O)NC3CCC3)c2F)c(F)c(F)c1Nc1ccc(I)cc1F [Compound A-32, 5-[[2-(Cyclobutylsulfamoylamino)-3-fluoropyridin-4-yl]methyl]-3,4-dif luoro-2-(2-fluoro-4-iodoanilino)benzamide]",IC50,"MEK1; Table 3, read-out: MEK1 IC50",25 nM
same,IC50,BRAF; read-out: BRAF IC50; Table 3,6 nM
same,IC50,A549; [2],7 nM
same,IC50,NCI-H2122; [2],5 nM
same,microsomal CLint at 0.99 µM,[1],19 µL/min/mg
"CCS(=O)(=O)Nc1nccc(Cc2cc(C(N)=O)c(Nc3ccc(I)cc3F)c(F)c2F)c1F [Compound A-38, 5-[[2-(Ethylsulfonylamino)-3-fluoropyridin-4-yl]methyl]-3,4-difluoro-2-(2-fluoro-4-iodoanilino)benzamide]",IC50,"MEK1; Table 3, read-out: MEK1 IC50",16 nM
same,IC50,BRAF; read-out: BRAF IC50; Table 3,3 nM
same,IC50,A549; [2],66 nM
same,IC50,NCI-H2122; [2],15 nM
same,microsomal CLint at 0.99 µM,[1],17 µL/min/mg
CCCS(=O)(=O)Nc1nccc(Cc2cc(C(N)=O)c(Nc3ccc(I)cc3F)c(F)c2F)c1F [Compound B-8],IC50,"MEK1; Table 3, read-out: MEK1 IC50",47 nM
same,IC50,BRAF; read-out: BRAF IC50; Table 3,7 nM
same,IC50,A549; [2],95 nM
same,IC50,NCI-H2122; [2],14 nM
same,microsomal CLint at 0.99 µM,[1],24 µL/min/mg
"NC(=O)c1cc(Cc2ccnc(NS(=O)(=O)NCCO)c2F)c(F)c(F)c1Nc1ccc(I)cc1F [Compound B-9, 3,4-Difluoro-5-[[3-fluoro-2-(2-hydroxyethylsulfamoylamino)pyridin-4-yl]methyl]-2-(2-fluoro-4-iodoanilino)benzamide]",IC50,"MEK1; Table 3, read-out: MEK1 IC50",2 nM
same,IC50,BRAF; read-out: BRAF IC50; Table 3,4 nM
same,IC50,A549; [2],10 nM
same,IC50,NCI-H2122; [2],7 nM
same,microsomal CLint at 0.99 µM,[1],11 µL/min/mg
"COCCNS(=O)(=O)Nc1cc(Cc2cc(C(N)=O)c(Nc3ccc(I)cc3F)c(F)c2F)ccn1 [Compound C-2, 3,4-Difluoro-2-(2-fluoro-4-iodoanilino)-5-[[2-(2-methoxyethylsulfamoylamino)pyridin-4-yl]methyl]benzamide]",IC50,"MEK1; Table 3, read-out: MEK1 IC50",104 nM
same,IC50,BRAF; read-out: BRAF IC50; Table 3,2 nM
same,IC50,A549; [2],16 nM
same,IC50,NCI-H2122; [2],7 nM
same,microsomal CLint at 0.99 µM,[1],17 µL/min/mg
"CNS(=O)(=O)Nc1cc(Cc2cc(C(N)=O)c(Nc3ccc(I)cc3F)c(F)c2F)ccn1 [Compound C-3, 3,4-difluoro-2-(2-fluoro-4-iodoanilino)-5-[[2-(methylsulfamoylamino)pyridin-4-yl]methyl]benzamide]",IC50,"MEK1; Table 3, read-out: MEK1 IC50",12 nM
same,IC50,BRAF; read-out: BRAF IC50; Table 3,3 nM
same,IC50,A549; [2],1 nM
same,IC50,NCI-H2122; [2],0.4 nM
same,microsomal CLint at 0.99 µM,[1],9 µL/min/mg
"CNS(C)(=O)=Nc1cc(Cc2cc(C(N)=O)c(Nc3ccc(I)cc3F)c(F)c2F)ccn1 (centres unmarked) [Compound C-4, 3,4-Difluoro-2-(2-fluoro-4-iodoanilino)-5-[[2-[[methyl-(methylamino)-oxo-λ6-sulfanylidene]amino]pyridin-4-yl]methyl]benzamide]",IC50,"MEK1; Table 3, read-out: MEK1 IC50",224 nM
same,IC50,BRAF; read-out: BRAF IC50; Table 3,23 nM
same,IC50,A549; [2],7 nM
same,IC50,NCI-H2122; [2],43 nM
same,microsomal CLint at 0.99 µM,[1],40 µL/min/mg
"CNS(=O)(=O)Nc1nccc(Cc2cc(C(N)=O)c(Nc3ccc(I)cc3C)c(F)c2F)c1F [Compound C-5, 3,4-Difluoro-5-[[3-fluoro-2-(methylsulfamoylamino)pyridin-4-yl]methyl]-2-(4-iodo-2-methylanilino)benzamide]",IC50,"MEK1; Table 3, read-out: MEK1 IC50",56 nM
same,IC50,BRAF; read-out: BRAF IC50; Table 3,3 nM
same,IC50,A549; [2],22 nM
same,IC50,NCI-H2122; [2],4 nM
same,microsomal CLint at 0.99 µM,[1],29 µL/min/mg
"COCCNS(=O)(=O)Nc1cccc(Cc2cc(C(N)=O)c(Nc3ccc(I)cc3F)c(F)c2F)c1F [Compound D-1, 3,4-Difluoro-2-(2-fluoro-4-iodoanilino)-5-[[2-fluoro-3-(2-methoxyethylsulfamoylamino)phenyl]methyl]benzamide]",IC50,"MEK1; Table 3, read-out: MEK1 IC50",96 nM
same,IC50,BRAF; read-out: BRAF IC50; Table 3,1 nM
same,IC50,A549; [2],9 nM
same,IC50,NCI-H2122; [2],5 nM
same,microsomal CLint at 0.99 µM,[1],25 µL/min/mg
"COCC(C)(C)NS(=O)(=O)Nc1cccc(Cc2cc(C(N)=O)c(Nc3ccc(I)cc3F)c(F)c2F)c1F [Compound D-2, 3,4-Difluoro-2-(2-fluoro-4-iodoanilino)-5-[[2-fluoro-3-[(1-methoxy-2-methylpropan-2-yl)sulfamoylamino]phenyl]methyl]benzamide]",IC50,"MEK1; Table 3, read-out: MEK1 IC50",242 nM
same,IC50,BRAF; read-out: BRAF IC50; Table 3,3 nM
same,IC50,A549; [2],9 nM
same,IC50,NCI-H2122; [2],5 nM
same,microsomal CLint at 0.99 µM,[1],103 µL/min/mg
"NC(=O)c1cc(Cc2cccc(NS(=O)(=O)NC[C@H]3CCCO3)c2F)c(F)c(F)c1Nc1ccc(I)cc1F [Compound D-3, 3,4-Difluoro-2-(2-fluoro-4-iodoanilino)-5-[[2-fluoro-3-[[(2R)-oxolan-2-yl]methylsulfamoylamino]phenyl]methyl]benzamide]",IC50,"MEK1; Table 3, read-out: MEK1 IC50",130 nM
same,IC50,BRAF; read-out: BRAF IC50; Table 3,1 nM
same,IC50,A549; [2],26 nM
same,IC50,NCI-H2122; [2],12 nM
same,microsomal CLint at 0.99 µM,[1],68 µL/min/mg
